Target: human BACE1 (Homo sapiens (Human), UniProt P56817)
Test: BACE1 binding assay (SPA-based, radioligand displacement)
Conditions: pH 4.5, Ki calculated from IC50
Procedure: The binding assay was performed as SPA-based assay using a biotinylated form of human BACE1 recombinantly expressed and subsequently purified from Freestyle HEK293 cells. The binding assay was run in a 50 mM sodium acetate buffer, pH 4.5 containing 50 mM NaCl and 0.03% Tween-20 in white clear bottom 384 plates (Corning #3653). 10 nM (final concentration) radioligand ([^3H]—N-((1S,2R)-1-benzyl-3-cyclopropylamino-2-hydroxy-propyl)-5-(methanesulfonyl-methyl-amino)-N—((R)-1-phenyl-ethyl)-isophthalamide) (TRQ11569 purchased from GE Healthcare) was mixed with test compound at a given concentration, 6 nM (final concentration) human BACE1 and 25 μg Streptavidin coated PVT core SPA beads (RPNQ0007, GE Healthcare Life Sciences) in a total volume of 40 μl. Several concentrations of each test compound were tested in the assay for IC50 determination. The plates were incubated for one hour at room temperature and counted in a Wallac Trilux counter. Total and non-specific binding were determined using buffer and 1 μM (final concentration) of the high affinity BACE1 reference inhibitor (S)-6-[3-chloro-5-(5-prop-1-ynyl-pyridin-3-yl)-thiophen-2-yl]-2-imino-3,6-dimethyl-tetrahydro-pyrimidin-4-one, respectively. For each test compound, a IC50 value (the concentration mediating 50% inhibition of the specific binding of the radioligand) was determined from concentration-response curve and used to calculate the Ki from the equation Ki=IC50/(1+L/Kd), where L and Kd are the final concentration of the radioligand used in the assay and the dissociation constant of the radioligand, respectively. The Kd of the radioligand was determined from saturation binding experiments.

human BACE1, sequence (P56817 46-501): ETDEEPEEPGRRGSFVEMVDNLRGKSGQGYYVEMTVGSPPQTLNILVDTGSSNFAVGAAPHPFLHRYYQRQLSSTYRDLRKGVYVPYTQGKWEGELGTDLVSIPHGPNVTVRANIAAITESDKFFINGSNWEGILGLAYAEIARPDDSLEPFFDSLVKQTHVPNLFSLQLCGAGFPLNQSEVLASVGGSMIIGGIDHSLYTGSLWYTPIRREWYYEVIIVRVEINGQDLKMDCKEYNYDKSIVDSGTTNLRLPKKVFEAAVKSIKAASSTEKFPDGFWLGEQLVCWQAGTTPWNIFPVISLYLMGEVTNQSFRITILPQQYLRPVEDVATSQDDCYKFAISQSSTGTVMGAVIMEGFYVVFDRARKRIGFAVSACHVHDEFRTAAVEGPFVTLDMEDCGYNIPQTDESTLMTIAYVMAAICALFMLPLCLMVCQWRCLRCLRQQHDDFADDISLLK

SMILES | Ki [nM]
C[C@@]1(F)CC(F)(F)[C@@](C)(c2cc(NC(=O)c3ccc(F)cn3)ccc2F)N=C1N [Compound 2, N-(3-((2R,5R)-6-amino-3,3,5-trifluoro-2,5-dimethyl-2,3,4,5-tetrahydropyridin-2-yl)-4-fluorophenyl)-5-fluoropicolinamide] | 210
C[C@]1(F)CC(F)(F)[C@@](C)(c2cc(NC(=O)c3ccc(Cl)cn3)ccc2F)N=C1N [Compound 3, N-(3-((2R,5S)-6-amino-3,3,5-trifluoro-2,5-dimethyl-2,3,4,5-tetrahydropyridin-2-yl)-4-fluorophenyl)-5-chloropicolinamide] | 12
C[C@]1(F)CC(F)(F)[C@@](C)(c2cc(NC(=O)c3ccc(C#N)cn3)ccc2F)N=C1N [Compound 4, N-(3-((2R,5S)-6-amino-3,3,5-trifluoro-2,5-dimethyl-2,3,4,5-tetrahydropyridin-2-yl)-4-fluorophenyl)-5-cyanopicolinamide] | 11
C[C@]1(F)CC(F)(F)[C@@](C)(c2cc(NC(=O)c3ccn(C(F)F)n3)ccc2F)N=C1N [Compound 6, N-(3-((2R,5S)-6-amino-3,3,5-trifluoro-2,5-dimethyl-2,3,4,5-tetrahydropyridin-2-yl)-4-fluorophenyl)-1-(difluoromethyl)-1H-pyrazole-3-carboxamide] | 19
Cc1nc(C(=O)Nc2ccc(F)c([C@@]3(C)N=C(N)[C@@](C)(F)CC3(F)F)c2)co1 [Compound 7, N-(3-((2R,5S)-6-amino-3,3,5-trifluoro-2,5-dimethyl-2,3,4,5-tetrahydropyridin-2-yl)-4-fluorophenyl)-2-methyloxazole-4-carboxamide] | 33
C[C@]1(F)CC(F)(F)[C@@](C)(c2cc(NC(=O)c3nccs3)ccc2F)N=C1N [Compound 8, N-(3-((2R,5S)-6-amino-3,3,5-trifluoro-2,5-dimethyl-2,3,4,5-tetrahydropyridin-2-yl)-4-fluorophenyl) thiazole-2-carboxamide] | 66
Cn1cc(Br)nc1C(=O)Nc1ccc(F)c([C@@]2(C)N=C(N)[C@@](C)(F)CC2(F)F)c1 [Compound 9, N-(3-((2R,5S)-6-amino-3,3,5-trifluoro-2,5-dimethyl-2,3,4,5-tetrahydropyridin-2-yl)-4-fluorophenyl)-4-bromo-1-methyl-1H-imidazole-2-carboxamide] | 100
Cc1csc(C(=O)Nc2ccc(F)c([C@@]3(C)N=C(N)[C@@](C)(F)CC3(F)F)c2)n1 [Compound 10, N-(3-((2R,5S)-6-amino-3,3,5-trifluoro-2,5-dimethyl-2,3,4,5-tetrahydropyridin-2-yl)-4-fluorophenyl)-4-methylthiazole-2-carboxamide] | 44
C[C@]1(F)CC(F)(F)[C@@](C)(c2cc(NC(=O)c3ccc(C(F)(F)F)cn3)ccc2F)N=C1N [Compound 11, N-(3-((2R,5S)-6-amino-3,3,5-trifluoro-2,5-dimethyl-2,3,4,5-tetrahydropyridin-2-yl)-4-fluorophenyl)-5-(trifluoromethyl)picolinamide] | 63
COc1cnc(C(=O)Nc2ccc(F)c([C@@]3(C)N=C(N)[C@@](C)(F)CC3(F)F)c2)nc1 [Compound 12, N-(3-((2R,5S)-6-amino-3,3,5-trifluoro-2,5-dimethyl-2,3,4,5-tetrahydropyridin-2-yl)-4-fluorophenyl)-5-methoxypyrimidine-2-carboxamide] | 29
C[C@]1(F)CC(F)(F)[C@@](C)(c2cc(NC(=O)c3nc(CF)co3)ccc2F)N=C1N [Compound 14, N-(3-((2R,5S)-6-amino-3,3,5-trifluoro-2,5-dimethyl-2,3,4,5-tetrahydropyridin-2-yl)-4-fluorophenyl)-4-(fluoromethyl)oxazole-2-carboxamide] | 37
C[C@]1(F)CC(F)(F)[C@@](C)(c2cc(NC(=O)c3nc(CF)cs3)ccc2F)N=C1N [Compound 15, N-(3-((2R,5S)-6-amino-3,3,5-trifluoro-2,5-dimethyl-2,3,4,5-tetrahydropyridin-2-yl)-4-fluorophenyl)-4-(fluoromethyl)thiazole-2-carboxamide] | 46
C[C@]1(F)CC(F)(F)[C@@](C)(c2cc(NC(=O)c3cnc(C(F)F)cn3)ccc2F)N=C1N [Compound 16, N-(3-((2R,5S)-6-amino-3,3,5-trifluoro-2,5-dimethyl-2,3,4,5-tetrahydropyridin-2-yl)-4-fluorophenyl)-5-(difluoromethyl)pyrazine-2-carboxamide] | 58
COc1cnc(C(=O)Nc2ccc(F)c([C@@]3(C)N=C(N)[C@@](C)(F)CC3(F)F)c2)c(C)n1 [Compound 19, N-(3-((2R,5S)-6-amino-3,3,5-trifluoro-2,5-dimethyl-2,3,4,5-tetrahydropyridin-2-yl)-4-fluorophenyl)-5-methoxy-3-methylpyrazine-2-carboxamide] | 32
Cc1nnc(C(=O)Nc2ccc(F)c([C@@]3(C)N=C(N)[C@@](C)(F)CC3(F)F)c2)o1 [Compound 20, N-(3-((2R,5S)-6-amino-3,3,5-trifluoro-2,5-dimethyl-2,3,4,5-tetrahydropyridin-2-yl)-4-fluorophenyl)-5-methyl-1,3,4-oxadiazole-2-carboxamide] | 1600
Cc1noc(C(=O)Nc2ccc(F)c([C@@]3(C)N=C(N)[C@@](C)(F)CC3(F)F)c2)n1 [Compound 21, N-(3-((2R,5S)-6-amino-3,3,5-trifluoro-2,5-dimethyl-2,3,4,5-tetrahydropyridin-2-yl)-4-fluorophenyl)-3-methyl-1,2,4-oxadiazole-5-carboxamide] | 58
Cn1cnc(C(=O)Nc2ccc(F)c([C@@]3(C)N=C(N)[C@@](C)(F)CC3(F)F)c2)n1 [Compound 22, N-(3-((2R,5S)-6-amino-3,3,5-trifluoro-2,5-dimethyl-2,3,4,5-tetrahydropyridin-2-yl)-4-fluorophenyl)-1-methyl-1H-1,2,4-triazole-3-carboxamide] | 110
C[C@@]1(F)CC(F)(F)[C@@](C)(c2cc(NC(=O)c3ccn(C(F)F)n3)ccc2F)N=C1N [Compound 23, N-(3-((2R,5R)-6-amino-3,3,5-trifluoro-2,5-dimethyl-2,3,4,5-tetrahydropyridin-2-yl)-4-fluorophenyl)-1-(difluoromethyl)-1H-pyrazole-3-carboxamide] | 71
COc1cnc(C(=O)Nc2ccc(F)c([C@@]3(C)N=C(N)[C@](C)(F)CC3(F)F)c2)cn1 [Compound 25, N-(3-((2R,5R)-6-amino-3,3,5-trifluoro-2,5-dimethyl-2,3,4,5-tetrahydropyridin-2-yl)-4-fluorophenyl)-5-methoxypyrazine-2-carboxamide] | 130
COc1cnc(C(=O)Nc2ccc(F)c([C@@]3(C)N=C(N)[C@](C)(F)CC3(F)F)c2)nc1 [Compound 26, N-(3-((2R,5R)-6-amino-3,3,5-trifluoro-2,5-dimethyl-2,3,4,5-tetrahydropyridin-2-yl)-4-fluorophenyl)-5-methoxypyrimidine-2-carboxamide] | 130
Cc1csc(C(=O)Nc2ccc(F)c([C@@]3(C)N=C(N)[C@](C)(F)CC3(F)F)c2)n1 [Compound 27, N-(3-((2R,5R)-6-amino-3,3,5-trifluoro-2,5-dimethyl-2,3,4,5-tetrahydropyridin-2-yl)-4-fluorophenyl)-4-methylthiazole-2-carboxamide] | 140
C[C@@]1(F)CC(F)(F)[C@@](C)(c2cc(NC(=O)c3ccc(C(F)(F)F)cn3)ccc2F)N=C1N [Compound 28, N-(3-((2R,5R)-6-amino-3,3,5-trifluoro-2,5-dimethyl-2,3,4,5-tetrahydropyridin-2-yl)-4-fluorophenyl)-5-(trifluoromethyl)picolinamide] | 170
C[C@@]1(F)CC(F)(F)[C@@](C)(c2cc(NC(=O)c3nc(CF)co3)ccc2F)N=C1N [Compound 30, N-(3-((2R,5R)-6-amino-3,3,5-trifluoro-2,5-dimethyl-2,3,4,5-tetrahydropyridin-2-yl)-4-fluorophenyl)-4-(fluoromethyl)oxazole-2-carboxamide] | 260
C[C@@]1(F)CC(F)(F)[C@@](C)(c2cc(NC(=O)c3nc(CF)cs3)ccc2F)N=C1N [Compound 31, N-(3-((2R,5R)-6-amino-3,3,5-trifluoro-2,5-dimethyl-2,3,4,5-tetrahydropyridin-2-yl)-4-fluorophenyl)-4-(fluoromethyl)thiazole-2-carboxamide] | 92
C[C@@]1(F)CC(F)(F)[C@@](C)(c2cc(NC(=O)c3ccc(C#N)cn3)ccc2F)N=C1N [Compound 32, N-(3-((2R,5R)-6-amino-3,3,5-trifluoro-2,5-dimethyl-2,3,4,5-tetrahydropyridin-2-yl)-4-fluorophenyl)-5-cyanopicolinamide] | 51
C[C@@]1(F)CC(F)(F)[C@@](C)(c2cc(NC(=O)c3ccc(Cl)cn3)ccc2F)N=C1N [Compound 33, N-(3-((2R,5R)-6-amino-3,3,5-trifluoro-2,5-dimethyl-2,3,4,5-tetrahydropyridin-2-yl)-4-fluorophenyl)-5-chloropicolinamide] | 62
Cc1nc(C(=O)Nc2ccc(F)c([C@@]3(C)N=C(N)[C@](C)(F)CC3(F)F)c2)co1 [Compound 34, N-(3-((2R,5R)-6-amino-3,3,5-trifluoro-2,5-dimethyl-2,3,4,5-tetrahydropyridin-2-yl)-4-fluorophenyl)-2-methyloxazole-4-carboxamide] | 210

From patent publication US9353084B2, “2-amino 3,5,5-trifluoro-3,4,5,6-tetrahydropyridines as BACE1 inhibitors for treatment of Alzheimer's disease” (H. Lundbeck A/S, priority 2014, dated 2016)
